Target: T1, AXL (human catalytic domain) (Homo sapiens, UniProt P30530)
T1 construct: purchased Upstate Ltd. 14-512
T1 sequence (P30530 473-894): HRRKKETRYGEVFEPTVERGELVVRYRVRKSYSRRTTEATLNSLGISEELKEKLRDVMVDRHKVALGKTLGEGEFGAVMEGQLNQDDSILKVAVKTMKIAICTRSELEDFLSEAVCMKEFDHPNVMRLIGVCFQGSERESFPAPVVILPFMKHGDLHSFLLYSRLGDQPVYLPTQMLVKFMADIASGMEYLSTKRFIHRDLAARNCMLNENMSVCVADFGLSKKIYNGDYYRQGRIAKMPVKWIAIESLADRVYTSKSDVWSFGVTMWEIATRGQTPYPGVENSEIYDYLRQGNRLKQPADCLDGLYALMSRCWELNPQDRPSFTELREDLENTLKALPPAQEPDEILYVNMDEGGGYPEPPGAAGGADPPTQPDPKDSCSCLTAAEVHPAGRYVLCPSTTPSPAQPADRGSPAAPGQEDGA
Experiment: AXL (human catalytic domain) Enzyme Activity Assay (IMAP fluorescence polarisation)
Assay type: biochemical
How it was run: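 IMAP FP readout (Ex485/Em535, after overnight binding) measured inhibition of the human AXL catalytic domain (aa473-894, 15 nM final) acting on 100 nM 5FAM-CSK-tide at 150 μM ATP, equal to KM. Reactions ran 60 min at room temperature in pH 7.0 HEPES buffer; IC50 from 10-point curves.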

[1] = further data set (WW-001 through WW-169, XX-001 through XX-469, YY-001 through YY-016, ZZ-001 through ZZ-003), 150 μM ATP
[2] = first data set, recombinant AXL isoform 1 aa473-894, 150 μM ATP

| Structure (SMILES) | IC50 [1] | IC50 [2] |
| --- | --- | --- |
| CCCCNC(=O)c1cccc(-c2cccc3nc(Nc4ccc(OCCN5CCCC5)cc4)nn23)c1 [XX-301] | 1000 to 10000 nM |  |
| COc1ncccc1-c1cccc2nc(Nc3ccc(OCCN4CCCC4)cc3)nn12 [XX-200] | 1000 to 10000 nM |  |
| COc1ccc(-c2cccc3nc(NC(=O)C4CC4)nn23)cc1F [WW-067] | 1000 to 10000 nM | 1000 to 10000 nM |
| NC(=O)Cn1cc(-c2cccc3nc(Nc4ccc(OCCN5CCCC5)cc4)nn23)cn1 [XX-342] | 1000 to 10000 nM |  |
| O=C(Nc1nc2cccc(Nc3ccccc3Cl)n2n1)C1CC1 [WW-128] | 1000 to 10000 nM | 1000 to 10000 nM |
| O=C(Nc1nc2cccc(-c3cccc(F)c3)n2n1)C1CC1 [WW-007, Cyclopropanecarboxylic acid [5-(3-fIuoro-phenyl)-[1,2,4]triazolo[1,5-a]pyridin-2-yl]-amide] | 1000 to 10000 nM | 1000 to 10000 nM |
| O=C(Nc1nc2cccc(-c3ccc(OC(F)(F)F)cc3)n2n1)C1CC1 [WW-099] | 1000 to 10000 nM | 1000 to 10000 nM |
| COc1cccc(NC(=O)Nc2cccc(-c3cccc4nc(Nc5ccc(OCCN6CCCC6)cc5)nn34)c2)c1 [XX-230] | 1000 to 10000 nM |  |
| COc1ccc(-c2cccc3nc(NC(=O)C4CC4(F)F)nn23)cc1 (stereo not shown) [WW-125] | 1000 to 10000 nM | 1000 to 10000 nM |
| COc1cc(CNc2cccc(-c3cccc4nc(Nc5ccc(OCCN6CCCC6)cc5)nn34)c2)cc(OC)c1 [XX-450] | 100 to 1000 nM |  |
| CCN(CC)CCOc1cc(Nc2nc3cccc(-c4cnn(Cc5ccccc5)c4)n3n2)ccn1 [XX-387] | 100 to 1000 nM |  |
| COc1ccc(-c2cccc3nc(Nc4ccc(OCCN(C)Cc5ccccc5)cc4)nn23)cc1 [XX-064] | 100 to 1000 nM | < 1000 nM |
| CC(C)Oc1ccc(-c2cccc3nc(NC(=O)C4CC4)nn23)cc1 [WW-150] | 1000 to 10000 nM | 1000 to 10000 nM |
| CS(=O)(=O)Nc1ccc(-c2cccc3nc(NC(=O)C4CC4)nn23)cc1 [WW-017] | 1000 to 10000 nM | 1000 to 10000 nM |
| COc1ccc(-c2cccc3nc(Nc4ccc(OCCN(C)C)cc4)nn23)cc1 [XX-006] | 100 to 1000 nM | < 1000 nM |
| c1ccc(CNc2ccc(-c3cccc4nc(Nc5ccc(OCCN6CCCC6)cc5)nn34)cc2)cc1 [XX-252] | 100 to 1000 nM |  |
| CS(=O)(=O)c1ccc(-c2cccc3nc(Nc4ccc(OCCN5CCCC5)cc4)nn23)cc1 [XX-215, [5-(4-Methanesulfonyl-phenyl)-[1,2,4]triazolo[1,5-a]pyridin-2-yl]-[4-(2-pyrrolidin-1-yl-ethoxy)-phenyl]-amine] | 100 to 1000 nM |  |
| c1cc(-c2ccc(NCc3ccoc3)cc2)n2nc(Nc3ccc(OCCN4CCCC4)cc3)nc2c1 [XX-268] | 100 to 1000 nM |  |

| Structure (SMILES) | IC50 [1] | IC50 [2] |
| --- | --- | --- |
| NCc1ccc(-c2cccc3nc(NC(=O)C4CC4)nn23)cc1 [WW-050] | 1000 to 10000 nM | 1000 to 10000 nM |
| COc1ccc(-c2cccc3nc(Nc4ccc5c(c4)OCCN5C)nn23)cc1 [XX-013] | 100 to 1000 nM | < 1000 nM |
| CCCCNc1cccc(-c2cccc3nc(Nc4ccc(OCCN5CCCC5)cc4)nn23)c1 [XX-399] | 100 to 1000 nM |  |
| Cc1cc(C(=O)Nc2ccc(-c3cccc4nc(Nc5ccc(OCCN6CCCC6)cc5)nn34)cc2)on1 [XX-251] | 100 to 1000 nM |  |
| NCC(=O)Nc1ccc(-c2cccc3nc(NC(=O)C4CC4)nn23)cc1 [WW-155, Cyclopropanecarboxylic acid {5-[4-(2-amino-acetylamino)-phenyl]-[1,2,4]triazolo[1,5-a]pyridin-2-yl}-amide] | 1000 to 10000 nM | 1000 to 10000 nM |
| c1ccc2sc(-c3cccc4nc(Nc5ccc(OCCCN6CCCCC6)cc5)nn34)cc2c1 [XX-422] | 100 to 1000 nM |  |
| Cc1csc(-c2cccc3nc(NC(=O)C4CC4)nn23)c1 [WW-058] | 1000 to 10000 nM | 1000 to 10000 nM |
| CCn1cc(-c2cccc(-c3cccc4nc(Nc5ccc(OCCN6CCCC6)cc5)nn34)c2)cn1 [XX-172] | 100 to 1000 nM |  |
| CC(=O)Nc1ccc(S(=O)(=O)Nc2ccc(-c3cccc4nc(Nc5ccc(OCCN6CCCC6)cc5)nn34)cc2)cc1 [XX-277] | 1000 to 10000 nM |  |
| O=C(Nc1nc2cccc(-c3ccc(-n4cccn4)cc3)n2n1)C1CC1 [WW-109] | 1000 to 10000 nM | 1000 to 10000 nM |
| COc1ccc(-c2cccc3nc(NC(=O)C4CC4)nn23)cn1 [WW-006, Cyclopropanecarboxylic acid [5-(6-methoxy-pyridin-3-yl)-[1,2,4]triazolo[1,5-a]pyridin-2-yl]-amide] | 1000 to 10000 nM | 1000 to 10000 nM |
| CCN(CC)CCNc1ccc(-c2cccc3nc(NC(=O)C4CC4)nn23)cc1 [WW-153, Cyclopropanecarboxylic acid {5-[4-(2-diethylamino-ethylamino)-phenyl]-[1,2,4]triazolo[1,5-a]pyridin-2-yl}-amide] | 1000 to 10000 nM | 1000 to 10000 nM |
| CCn1cc(-c2ccc(-c3cccc4nc(Nc5ccc(OCCN6CCCC6)cc5)nn34)cc2)cn1 [XX-191] | 100 to 1000 nM |  |
| O=C(Nc1nc2cccc(-c3ccc4c(c3)OCO4)n2n1)C1CC1 [WW-049] | 100 to 1000 nM | < 1000 nM |
| c1ccc(-c2ccc(-c3cccc4nc(Nc5ccc(OCCN6CCCC6)cc5)nn34)cc2)cc1 [XX-216] | 100 to 1000 nM |  |
| Cc1noc(C)c1-c1cccc(-c2cccc3nc(Nc4ccc(OCCN5CCCC5)cc4)nn23)c1 [XX-464] | 100 to 1000 nM |  |
| O=C(Nc1nc2cccc(-c3cccc([N+](=O)[O-])c3)n2n1)C1CC1 [WW-091] | 1000 to 10000 nM | 1000 to 10000 nM |

The remaining lines, values ahead:

| IC50 [1] | IC50 [2] | Structure (SMILES) |
| --- | --- | --- |
| 100 to 1000 nM |  | Cc1c(-c2cccc3nc(Nc4ccc(OCCN5CCCC5)cc4)nn23)cnn1-c1ccccc1 [XX-438] |
| 100 to 1000 nM |  | CN1CCN(C(=O)c2cccc(Nc3nc4cccc(-c5ccc6c(c5)OCCO6)n4n3)c2)CC1 [XX-114] |
| 100 to 1000 nM |  | OCCn1cc(-c2cccc3nc(Nc4ccc(OCCN5CCCC5)cc4)nn23)cn1 [XX-307, 2-(4-{2-[4-(2-Pyrrolidin-1-yl-ethoxy)-phenylamino]-[1,2,4]triazolo[1,5-a]pyridin-5-yl}-pyrazol-1-yl)-ethanol] |
| 100 to 1000 nM |  | Fc1cccc(CNc2cccc(-c3cccc4nc(Nc5ccc(OCCN6CCCC6)cc5)nn34)c2)c1 [XX-264] |
| 100 to 1000 nM | < 1000 nM | COc1ccc(-c2cccc3nc(Nc4cccc(OCCn5ccnc5)c4)nn23)cc1 [XX-015, [3-(2-Imidazol-1-yl-ethoxy)-phenyl]-[5-(4-methoxy-phenyl)-[1,2,4]triazolo[1,5-a]pyridin-2-yl]-amine] |
| 100 to 1000 nM |  | CC(C)CC(=O)NCc1cccc(-c2cccc3nc(Nc4ccc(OCCN5CCCC5)cc4)nn23)c1 [XX-325, 3-Methyl-N-(3-{2-[4-(2-pyrrolidin-1-yl-ethoxy)-phenylamino]-[1,2,4]triazolo[1,5-a]pyridin-5-yl}-benzyl)-butyramide] |
| ≤ 100 nM |  | CCN(CC)CCOc1cc(Nc2nc3cccc(-c4ccc(OC)cc4)n3n2)ccn1 [XX-361] |
| ≤ 100 nM |  | COc1ccc(-c2cccc3nc(Nc4cccc(N(C)C(=O)C(C)N5CCCC5)c4)nn23)cc1 (stereo not shown) [XX-390] |
| 100 to 1000 nM |  | c1cc(-c2ccc(-c3ccsc3)cc2)n2nc(Nc3ccc(OCCN4CCCC4)cc3)nc2c1 [XX-186] |
| 100 to 1000 nM |  | Cc1ccc(CCn2cc(-c3cccc4nc(Nc5ccc(OCCN6CCCC6)cc5)nn34)cn2)cc1 [XX-350] |
| ≤ 100 nM | < 1000 nM | COc1ccc(-c2cccc3nc(Nc4ccc(OCCN5CCCC5)c(OC)c4)nn23)cc1 [XX-066] |
| 100 to 1000 nM |  | COc1ccc(NC(=O)Nc2cccc(-c3cccc4nc(Nc5ccc(OCCN6CCCC6)cc5)nn34)c2)cc1 [XX-231] |
| 100 to 1000 nM |  | CC(C)CCCn1cc(-c2cccc3nc(Nc4ccc(OCCN5CCCC5)cc4)nn23)cn1 [XX-345] |
| 100 to 1000 nM | < 1000 nM | O=C(Nc1nc2cccc(-c3ccc(O)cc3)n2n1)C1CC1 [WW-022, cyclopropanecarboxylic acid [5-(4-hydroxy-phenyl)-[1,2,4]triazolo[1,5-a]pyridin-2-yl]-amide] |
| 100 to 1000 nM |  | c1ccc2sc(-c3cccc4nc(Nc5ccc(OCCN6CCCC6)cc5)nn34)cc2c1 [XX-294] |
| 100 to 1000 nM |  | Cc1ccc(-c2cccc3nc(Nc4ccc(OCCN5CCCC5)cc4)nn23)cc1C [XX-279] |
| 100 to 1000 nM |  | CCN(CC)CCNc1cccc(Nc2nc3cccc(-c4ccc5c(c4)OCCO5)n3n2)c1 [XX-128] |
| 100 to 1000 nM |  | N#CCCn1cc(-c2cccc3nc(Nc4ccc(OCCN5CCCC5)cc4)nn23)cn1 [XX-351] |
| ≤ 100 nM |  | COc1ccc(Nc2nc3cccc(-c4ccc5c(c4)OCCO5)n3n2)cc1OCCN1CCCC1 [XX-132] |
| 100 to 1000 nM |  | Cn1nc(COc2cccc(-c3cccc4nc(Nc5ccc(OCCN6CCCC6)cc5)nn34)c2)c2ccccc21 [XX-407] |
| ≤ 100 nM |  | CCN(CC)CCOc1cc(Nc2nc3cccc(-c4ccc5c(c4)OCCO5)n3n2)ccn1 [XX-163] |
| ≤ 100 nM | < 1000 nM | COc1ccc(-c2cccc3nc(Nc4ccc(OCCNCc5ccncc5)cc4)nn23)cc1 [XX-032] |
| ≤ 100 nM | < 1000 nM | c1cc(-c2ccc3c(c2)OCCO3)n2nc(Nc3ccc(N4CCNCC4)cc3)nc2c1 [XX-060] |
| ≤ 100 nM | < 1000 nM | COc1ccc(-c2cccc3nc(Nc4cccc(C(=O)NCCN(C)C)c4)nn23)cc1 [XX-037] |
| ≤ 100 nM |  | CCN(CC)CCN(C)c1cc(Nc2nc3cccc(-c4ccc(OC)cc4)n3n2)ccn1 [XX-326] |
| ≤ 100 nM |  | CCCS(=O)(=O)n1cc(-c2cccc3nc(Nc4ccc(OCCN5CCCC5)cc4)nn23)cn1 [XX-380] |
